According to the supplement of paper PMC11208160:

Test: recombinant barcode read abundance after kanamycin selection (control-corrected) (log10(CPM+1)); higher = more efficient recombination; sequences stand for … in AGTGCAGAGAAAATCGGCCAGTTTTCTCTGCCTGCAGTCCGCATGCCGT…AGATTTATGCAGCGGACTGCCTTTCTCCCAAAGTGATAAACCGGACAGTATCATGGACCGGTTTTCCCGGTAATCCGTATTTGCAAGGTTGGTTTCACT; site = the 11-nt target
Description: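 Pooled E. coli target-specificity screen for the IS621 bridge recombinase. Each library plasmid pairs an 11-nt target (CT core) with a bridge RNA whose target-binding loop (9-nt LTG + 4-nt RTG) is reprogrammed; the rest of the 177-nt WT IS621 bridge RNA scaffold is fixed. The plasmid is co-electroporated with a WT donor plasmid; recombinase is induced with 0.1 mM IPTG and recombinants are selected on kanamycin. Recombinant barcodes are sequenced, converted to CPM, averaged over two biological replicates and corrected by the unselected control CPM. Molecule = full bridge RNA written as DNA: LTG = specificity nt 1-9, RTG = reverse complement of specificity nt 8-11, in the WT scaffold.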
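Note: IS621 recombinase and bridge RNA in Escherichia coli cells.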

**Q.** For “AACAGACCTTGGGTTCTAACCTGTTGCCT (site AACAGACCTAG)”, which “recombinant barcode read abundance (log10)” value is on record?
**A.** 1.62

**Q.** Which “recombinant barcode read abundance (log10)” value does the source give for “AACAGACCTTGGGTTCTAACCTGTTGCCT (site CACAGACCTAG)” here?
**A.** 0.116

**Q.** Which “recombinant barcode read abundance (log10)” value does the source give for “AACAGACCTTGGGTTCTAACCTGTTGCCT (site GACAGACCTAG)” here?
**A.** 0.291

**Q.** With “AACAGACCTTGGGTTCTAACCTGTTGCCT (site TACAGACCTAG)” as the sequence, how does the “recombinant barcode read abundance (log10)” value read?
**A.** 0.686

**Q.** For “AACAGGGCTTGGGTTCTAACCTGTTGCCG (site AACAGGGCTCG)”, which “recombinant barcode read abundance (log10)” value is on record?
**A.** 1.22

**Q.** For “AACAGGGCTTGGGTTCTAACCTGTTGCCG (site TGGCATCCTAC)”, which “recombinant barcode read abundance (log10)” value is on record?
**A.** 0.0251

**Q.** For “AACAGGTCTTGGGTTCTAACCTGTTGCCT (site AACAGGTCTAG)”, which “recombinant barcode read abundance (log10)” value is on record?
**A.** 0.902

**Q.** Which “recombinant barcode read abundance (log10)” value does the source give for “AACAGGTCTTGGGTTCTAACCTGTTGCCT (site ACCAGGTCTAG)” here?
**A.** 0.175

**Q.** With “AACAGGTCTTGGGTTCTAACCTGTTGCCT (site AGCAGGTCTAG)” as the sequence, how does the “recombinant barcode read abundance (log10)” value read?
**A.** 0.0529

**Q.** For “AACAGGTCTTGGGTTCTAACCTGTTGCCT (site ATCAGGTCTAG)”, which “recombinant barcode read abundance (log10)” value is on record?
**A.** 0.0485

**Q.** With “AACATTCCTTGGGTTCTAACCTGTTGCCT (site AACATTCCTAG)” as the sequence, how does the “recombinant barcode read abundance (log10)” value read?
**A.** 0.151

**Q.** For “AACATTCCTTGGGTTCTAACCTGTTGCCT (site CACATTCCTAG)”, which “recombinant barcode read abundance (log10)” value is on record?
**A.** 0

**Q.** Which “recombinant barcode read abundance (log10)” value does the source give for “AACATTCCTTGGGTTCTAACCTGTTGCCT (site GACATTCCTAG)” here?
**A.** 0.355

**Q.** Which “recombinant barcode read abundance (log10)” value does the source give for “AACATTCCTTGGGTTCTAACCTGTTGCCT (site TACATTCCTAG)” here?
**A.** 0.0261

**Q.** Which “recombinant barcode read abundance (log10)” value does the source give for “AACATTGCTTGGGTTCTAACCTGTTGCCT (site AACAATGCTAG)” here?
**A.** 0.765

**Q.** Which “recombinant barcode read abundance (log10)” value does the source give for “AACATTGCTTGGGTTCTAACCTGTTGCCT (site AACACTGCTAG)” here?
**A.** 0.695

**Q.** Which “recombinant barcode read abundance (log10)” value does the source give for “AACATTGCTTGGGTTCTAACCTGTTGCCT (site AACAGTGCTAG)” here?
**A.** 0.372

**Q.** With “AACATTGCTTGGGTTCTAACCTGTTGCCT (site AACATTGCTAG)” as the sequence, how does the “recombinant barcode read abundance (log10)” value read?
**A.** 0.979

**Q.** Which “recombinant barcode read abundance (log10)” value does the source give for “AACCATCCTTGGGTTCTAACCTGTTGCCT (site AACCAGCCTAG)” here?
**A.** 0.0589

**Q.** Which “recombinant barcode read abundance (log10)” value does the source give for “AACCATCCTTGGGTTCTAACCTGTTGCCT (site AACCATCCTAG)” here?
**A.** 1.51

**Q.** Which “recombinant barcode read abundance (log10)” value does the source give for “AACCTTACTTGGGTTCTAACCTGTTGCCT (site AACCTTACTAG)” here?
**A.** 0.631

**Q.** For “AACCTTACTTGGGTTCTAACCTGTTGCCT (site ACCCTTACTAG)”, which “recombinant barcode read abundance (log10)” value is on record?
**A.** 0.122

**Q.** With “AACCTTACTTGGGTTCTAACCTGTTGCCT (site AGCCTTACTAG)” as the sequence, how does the “recombinant barcode read abundance (log10)” value read?
**A.** 0.0388

**Q.** Which “recombinant barcode read abundance (log10)” value does the source give for “AACCTTACTTGGGTTCTAACCTGTTGCCT (site ATCCTTACTAG)” here?
**A.** 0.0245

**Q.** For “AACGAGTCTTGGGTTCTAACCTGTTGCCT (site AACGAGTCTAG)”, which “recombinant barcode read abundance (log10)” value is on record?
**A.** 1.03

**Q.** For “AACGAGTCTTGGGTTCTAACCTGTTGCCT (site ACCGAGTCTAG)”, which “recombinant barcode read abundance (log10)” value is on record?
**A.** 0.152

**Q.** For “AACGAGTCTTGGGTTCTAACCTGTTGCCT (site AGCGAGTCTAG)”, which “recombinant barcode read abundance (log10)” value is on record?
**A.** 0.0187

**Q.** Which “recombinant barcode read abundance (log10)” value does the source give for “AACGAGTCTTGGGTTCTAACCTGTTGCCT (site ATCGAGTCTAG)” here?
**A.** 0.244

**Q.** With “AACTAAACTTGGGTTCTAACCTGTTGCCT (site AACTAAACTAG)” as the sequence, how does the “recombinant barcode read abundance (log10)” value read?
**A.** 1.02

**Q.** Which “recombinant barcode read abundance (log10)” value does the source give for “AACTAAACTTGGGTTCTAACCTGTTGCCT (site AACTCAACTAG)” here?
**A.** 0.0768

**Q.** For “AACTAAACTTGGGTTCTAACCTGTTGCCT (site AACTGAACTAG)”, which “recombinant barcode read abundance (log10)” value is on record?
**A.** 0.181

**Q.** For “AACTAAACTTGGGTTCTAACCTGTTGCCT (site AACTTAACTAG)”, which “recombinant barcode read abundance (log10)” value is on record?
**A.** 0.0783

**Q.** With “AACTATCCTTGGGTTCTAACCTGTTGCAT (site AACTATCCTAT)” as the sequence, how does the “recombinant barcode read abundance (log10)” value read?
**A.** 0.227

**Q.** Which “recombinant barcode read abundance (log10)” value does the source give for “AACTATCCTTGGGTTCTAACCTGTTGCAT (site AACTCTCCTAT)” here?
**A.** 0.109

**Q.** With “AACTATCCTTGGGTTCTAACCTGTTGCAT (site AACTGTCCTAT)” as the sequence, how does the “recombinant barcode read abundance (log10)” value read?
**A.** 0.00638

**Q.** For “AACTATCCTTGGGTTCTAACCTGTTGCAT (site AACTTTCCTAT)”, which “recombinant barcode read abundance (log10)” value is on record?
**A.** 0.196

**Q.** Which “recombinant barcode read abundance (log10)” value does the source give for “AAGACAACTTGGGTTCTAACCTGTTGCGG (site AAGACAACTCC)” here?
**A.** 1.64

**Q.** Which “recombinant barcode read abundance (log10)” value does the source give for “AAGACAACTTGGGTTCTAACCTGTTGCGG (site TGCCTGCCTAG)” here?
**A.** 0.042

**Q.** For “AAGACTCCTTGGGTTCTAACCTGTTGCCT (site AAGACTCCTAG)”, which “recombinant barcode read abundance (log10)” value is on record?
**A.** 0.824

**Q.** Which “recombinant barcode read abundance (log10)” value does the source give for “AAGACTCCTTGGGTTCTAACCTGTTGCCT (site AAGTCTCCTAG)” here?
**A.** 0.0612

**Q.** With “AAGAGCACTTGGGTTCTAACCTGTTGCCT (site AAGAGCACTAG)” as the sequence, how does the “recombinant barcode read abundance (log10)” value read?
**A.** 1.17

**Q.** For “AAGAGCACTTGGGTTCTAACCTGTTGCCT (site CAGAGCACTAG)”, which “recombinant barcode read abundance (log10)” value is on record?
**A.** 0.0257

**Q.** Which “recombinant barcode read abundance (log10)” value does the source give for “AAGAGCACTTGGGTTCTAACCTGTTGCCT (site GAGAGCACTAG)” here?
**A.** 0.0862

**Q.** For “AAGAGCACTTGGGTTCTAACCTGTTGCCT (site TAGAGCACTAG)”, which “recombinant barcode read abundance (log10)” value is on record?
**A.** 0.315

**Q.** With “AAGATAGCTTGGGTTCTAACCTGTTGCCT (site AAGAAAGCTAG)” as the sequence, how does the “recombinant barcode read abundance (log10)” value read?
**A.** 0.192

**Q.** With “AAGATAGCTTGGGTTCTAACCTGTTGCCT (site AAGACAGCTAG)” as the sequence, how does the “recombinant barcode read abundance (log10)” value read?
**A.** 0.147

**Q.** Which “recombinant barcode read abundance (log10)” value does the source give for “AAGATAGCTTGGGTTCTAACCTGTTGCCT (site AAGAGAGCTAG)” here?
**A.** 0.164

**Q.** With “AAGATAGCTTGGGTTCTAACCTGTTGCCT (site AAGATAGCTAG)” as the sequence, how does the “recombinant barcode read abundance (log10)” value read?
**A.** 1.59

**Q.** Which “recombinant barcode read abundance (log10)” value does the source give for “AAGCCCACTTGGGTTCTAACCTGTTGCGG (site AAGCCCACTCC)” here?
**A.** 2.28

**Q.** Which “recombinant barcode read abundance (log10)” value does the source give for “AAGCCCACTTGGGTTCTAACCTGTTGCGG (site CGCGTTGCTAG)” here?
**A.** 0.561

**Q.** For “AAGCCGCCTTGGGTTCTAACCTGTTGCTT (site AAGCCGCCTAA)”, which “recombinant barcode read abundance (log10)” value is on record?
**A.** 0.906

**Q.** Which “recombinant barcode read abundance (log10)” value does the source give for “AAGCCGCCTTGGGTTCTAACCTGTTGCTT (site TCAATAGCTGT)” here?
**A.** 0.35

**Q.** For “AAGCTCCCTTGGGTTCTAACCTGTTGCCT (site AAGCTCCCTAG)”, which “recombinant barcode read abundance (log10)” value is on record?
**A.** 1.6

**Q.** For “AAGCTCCCTTGGGTTCTAACCTGTTGCCT (site ACACTCCCTAG)”, which “recombinant barcode read abundance (log10)” value is on record?
**A.** 0.242

**Q.** With “AAGGCCGCTTGGGTTCTAACCTGTTGCCT (site AAGGACGCTAG)” as the sequence, how does the “recombinant barcode read abundance (log10)” value read?
**A.** 1.37

**Q.** Which “recombinant barcode read abundance (log10)” value does the source give for “AAGGCCGCTTGGGTTCTAACCTGTTGCCT (site AAGGCCGCTAG)” here?
**A.** 1.79

**Q.** For “AAGGCCGCTTGGGTTCTAACCTGTTGCCT (site AAGGGCGCTAG)”, which “recombinant barcode read abundance (log10)” value is on record?
**A.** 0.161

**Q.** With “AAGGCCGCTTGGGTTCTAACCTGTTGCCT (site AAGGTCGCTAG)” as the sequence, how does the “recombinant barcode read abundance (log10)” value read?
**A.** 0.259

**Q.** With “AAGGCGCCTTGGGTTCTAACCTGTTGCCT (site AAGGCGCCTAG)” as the sequence, how does the “recombinant barcode read abundance (log10)” value read?
**A.** 0.806

**Q.** For “AAGGCGCCTTGGGTTCTAACCTGTTGCCT (site ACGGCGCCTAG)”, which “recombinant barcode read abundance (log10)” value is on record?
**A.** 0.11

**Q.** For “AAGGCGCCTTGGGTTCTAACCTGTTGCCT (site AGGGCGCCTAG)”, which “recombinant barcode read abundance (log10)” value is on record?
**A.** 0.128

**Q.** Which “recombinant barcode read abundance (log10)” value does the source give for “AAGGCGCCTTGGGTTCTAACCTGTTGCCT (site ATGGCGCCTAG)” here?
**A.** 0.135

**Q.** Which “recombinant barcode read abundance (log10)” value does the source give for “AAGGGCTCTTGGGTTCTAACCTGTTGCTT (site AAGGGCTCTAA)” here?
**A.** 2.72

**Q.** Which “recombinant barcode read abundance (log10)” value does the source give for “AAGGGCTCTTGGGTTCTAACCTGTTGCTT (site GTCTCTCCTCT)” here?
**A.** 0.129

**Q.** For “AAGGTCCCTTGGGTTCTAACCTGTTGCGG (site AAGGTCCCTCC)”, which “recombinant barcode read abundance (log10)” value is on record?
**A.** 3.32

**Q.** Which “recombinant barcode read abundance (log10)” value does the source give for “AAGGTCCCTTGGGTTCTAACCTGTTGCGG (site TAGGTCCCTTC)” here?
**A.** 0.0703
